The results in this text go back to paper PMC6934184, “Selective DNA-PKcs inhibition extends the therapeutic index of localized radiotherapy and chemotherapy” (The Journal of Clinical Investigation, 2019).

The target of this test is T1, PDGFRB (PDGFR beta) (Homo sapiens, UniProt P09619).
T1 construct: purchased Thermo Fisher Scientific (Life Technologies) SelectScreen
Kind of test: SelectScreen Z'LYTE. The class given is biochemical. An outline of the steps: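 Percent values come from Thermo SelectScreen profiling of NU5455, combining activity and binding assays. CSF1R was run in Z'LYTE format at Km app ATP, and CAMK1 in Adapta format with ATP listed at 10.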

T1 sequence (P09619 33-1106): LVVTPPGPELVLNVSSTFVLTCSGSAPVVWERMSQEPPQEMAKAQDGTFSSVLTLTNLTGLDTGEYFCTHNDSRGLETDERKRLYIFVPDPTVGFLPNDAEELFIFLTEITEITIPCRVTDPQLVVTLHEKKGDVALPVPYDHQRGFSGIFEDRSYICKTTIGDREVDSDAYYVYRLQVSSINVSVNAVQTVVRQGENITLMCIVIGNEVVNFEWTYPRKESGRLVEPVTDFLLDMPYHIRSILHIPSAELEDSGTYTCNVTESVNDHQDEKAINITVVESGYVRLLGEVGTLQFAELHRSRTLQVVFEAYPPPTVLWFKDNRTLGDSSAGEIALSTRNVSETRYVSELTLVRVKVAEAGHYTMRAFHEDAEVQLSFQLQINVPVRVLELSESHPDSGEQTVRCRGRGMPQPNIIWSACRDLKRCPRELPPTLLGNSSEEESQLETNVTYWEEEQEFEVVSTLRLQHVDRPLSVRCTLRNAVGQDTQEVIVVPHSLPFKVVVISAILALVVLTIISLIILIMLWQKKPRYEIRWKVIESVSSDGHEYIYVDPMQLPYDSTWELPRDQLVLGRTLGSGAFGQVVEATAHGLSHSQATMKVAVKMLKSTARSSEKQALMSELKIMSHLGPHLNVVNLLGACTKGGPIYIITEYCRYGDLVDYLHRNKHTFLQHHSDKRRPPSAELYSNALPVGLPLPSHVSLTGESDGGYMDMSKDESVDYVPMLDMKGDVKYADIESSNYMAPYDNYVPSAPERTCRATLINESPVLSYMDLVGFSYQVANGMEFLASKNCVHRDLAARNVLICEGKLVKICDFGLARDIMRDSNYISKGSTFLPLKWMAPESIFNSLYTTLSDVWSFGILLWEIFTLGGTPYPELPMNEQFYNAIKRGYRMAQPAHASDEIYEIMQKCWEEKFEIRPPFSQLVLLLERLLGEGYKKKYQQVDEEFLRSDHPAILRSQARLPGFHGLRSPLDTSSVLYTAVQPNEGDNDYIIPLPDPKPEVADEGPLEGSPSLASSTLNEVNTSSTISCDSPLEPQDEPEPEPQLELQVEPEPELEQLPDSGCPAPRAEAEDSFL

The inhibition is how much of the control response was suppressed. On to `CN(C(=O)CN1CCOCC1)c1ccc2sc3c(-c4cccc5c(=O)cc(N6CC7CCC(C6)O7)oc45)cccc3c2c1` [NU5455], for which the inhibition at 1 µM came to 11%.
